Measurements published in patent publication US9962350B2, “Agent for improving normal development rate of fertilized eggs” (SBI Pharmaceuticals Co., Ltd., priority 2014, dated 2018).

System: fertilized eggs of the C57BL/6J lineage
Test: In vitro culture of natural mating-derived fertilized eggs in M16 medium supplemented with ALA; embryo development
Format: cell-based, mouse
Details: 37° C.
From the text: The female mice used to harvest fertilized eggs were female mice of the C57BL/6J lineage (21 weeks old to 27 weeks old, body weight: 21.0 to 24.5 g). The male mice used for mating were male mice of the C57BL/6J lineage (32 to 38 weeks old, body weight: 30.0 to 35.5 g). According to a routine method of controlled ovarian hyperstimulation, 5 U (units) of equine chorionic gonadotropin (serum gonadotrophin) (manufactured by ASKA Pharmaceutical Co., Ltd.) were intraperitoneally administered to each female mouse. 45 to 48 hours later, 5 U (units) of gonadotropin (human chorionic gonadotropin) (manufactured by ASKA Pharmaceutical Co., Ltd.) were intraperitoneally administered to each female mouse. Immediately after the administration of gonadotropin, each female mouse was mated with each male mouse described above.
On the next day, the presence or absence of a milky resin-like vaginal plug was determined for the mated female mice, and the oviducts were harvested from the female mice confirmed to have the vaginal plug. The harvested oviducts were left standing in physiological saline (0.9% (w/v) NaCl) for approximately 15 minutes and then transferred into M16 medium supplemented with approximately 300 μg/mL of hyaluronidase (manufactured by Sigma-Aldrich Corp.) for cumulus cell removal treatment. The oviducts were incised, and fertilized eggs were isolated and left standing at 37° C. for 5 to 10 minutes in a CO2 incubator. Then, the fertilized eggs separated from the cumulus cells were recovered and washed with hyaluronidase-unsupplemented M16 medium to remove hyaluronidase. The resulting cumulus cell-free fertilized eggs were left standing at 37° C. in a CO2 incubator.
Aside therefrom, a drop of 100 μL of M16 medium covered with mineral oil (manufactured by Sigma-Aldrich Corp.) and supplemented with ALA hydrochloride (manufactured by SBI Pharmaceuticals Co., Ltd.) at a final concentration of 0 μM (control), 0.1 μM, 0.5 μM, or 1 μM was prepared in a 35 mm Petri dish and left standing at 37° C. in a CO2 incubator. 29 or 30 of the cumulus cell-free fertilized eggs were transferred to the resulting drop and cultured in vitro at 37° C. in a CO2 incubator.
After a lapse of 24 hours, 48 hours, 72 hours, and 96 hours from the start of the in vitro culture (0 hours) in the drop, the developmental stage of each embryo was determined by observation under a stereoscopic microscope, and the number of embryos whose development progressed normally and change in development rate were calculated. Specifically, the number of 2-cell eggs 24 hours after the start of the culture, the number of 3-cell, 4-cell, and 8-cell eggs 48 hours thereafter, the number of morulae and blastocysts 72 hours thereafter, and the number of blastocysts 96 hours thereafter were counted as embryos whose development progressed normally at each stage. The development rate with the number of fertilized eggs (0 hours) defined as 100% is shown in Table 3 and the graph of FIG. 1. For the evaluation of the development rate, the percentage of the number of embryos whose development progressed normally 24 hours, 48 hours, 72 hours, and 96 hours after the start of the culture was calculated with the number of fertilized eggs (0 hours) defined as 100%, and used as a normal development rate. Because of the natural mating, the number of recovered fertilized eggs (0 hours) includes unfertilized eggs to some extent, and there is the possibility that the content of unfertilized eggs varies accidentally among fertilized eggs (0 hours) populations distributed to the respective condition groups even if the fertilized eggs (0 hours) populations have been recovered in the same experiment. The development rate calculated with the number of 2-cell embryos 24 hours postfertilization defined as 100% was calculated in order to eliminate the influence of the content of unfertilized eggs that varies accidentally among the respective condition groups. […]

With `NCC(=O)CCC(=O)O` [ALA, 5-aminolevulinic acid] the “The number of developed embryos” value (0.1 μM ALA, 24 hr) was 22, the “development rate with the number of fertilized eggs (0 hr) defined as 100%” value (from here on “development rate … (0 hr) defined as 100%”) (0.1 μM ALA, 24 hr) was 73% and the “The number of developed embryos” value (0.1 μM ALA, 48 hr) was 19. For the same molecule, the “development rate with the number of 2-cell embryos 24 hours postfertilization defined as 100%” value (0.1 μM ALA, 48 hr) was 86%, the “development rate … (0 hr) defined as 100%” value (0.1 μM ALA, 48 hr) was 63% and the “The number of developed embryos” value (0.1 μM ALA, 72 hr) was 14. The “development rate with the number of 2-cell embryos 24 hours postfertilization defined as 100%” value (0.1 μM ALA, 72 hr) was 64%, the “The number of developed embryos” value (0.1 μM ALA, 96 hr) was 7 and the “The number of developed embryos” value (0.5 μM ALA, 24 hr) was 24. For the same molecule, the “development rate … (0 hr) defined as 100%” value (0.5 μM ALA, 24 hr) was 83%, the “The number of developed embryos” value (0.5 μM ALA, 48 hr) was 21 and the “development rate with the number of 2-cell embryos 24 hours postfertilization defined as 100%” value (0.5 μM ALA, 48 hr) was 88%. For the same molecule, the “development rate … (0 hr) defined as 100%” value (0.5 μM ALA, 48 hr) was 72%, the “The number of developed embryos” value (0.5 μM ALA, 72 hr) was 14 and the “development rate with the number of 2-cell embryos 24 hours postfertilization defined as 100%” value (0.5 μM ALA, 72 hr) was 58%. For the same molecule, the “The number of developed embryos” value (0.5 μM ALA, 96 hr) was 13, the “The number of developed embryos” value (1 μM ALA, 24 hr) was 19 and the “development rate … (0 hr) defined as 100%” value (1 μM ALA, 24 hr) was 66%. For the same molecule, the “The number of developed embryos” value (1 μM ALA, 48 hr) was 19, the “development rate with the number of 2-cell embryos 24 hours postfertilization defined as 100%” value (1 μM ALA, 48 hr) was 100% and the “development rate … (0 hr) defined as 100%” value (1 μM ALA, 48 hr) was 66%. For the same molecule, the “The number of developed embryos” value (1 μM ALA, 72 hr) was 15 and the “The number of developed embryos” value (1 μM ALA, 96 hr) was 13.
